Where a name gives a salt, the structure may show the parent alone.
Experiments:
[1] = Water activity study of the crystalline potassium salt forms (acetone/water suspension, XRPD); assay type: physicochemical; conditions: for Relative stability of crystalline forms: versus Form III of the potassium salt
Experimental: A water activity study of the potassium salt forms was conducted in two groups: (i) Form I and Form III of the potassium salt, and (ii) Form II and Form III of the potassium salt.
Each suspension was shaken at 700 rpm in a shaker at 25° C., 35° C., 45° C., and 50° C., and the sample was analyzed by XRPD.

[2] = Heating of potassium salt forms (XRPD/DSC after heating); assay type: physicochemical

| Time of conversion to Form III of the potassium salt ([1]; KF wt. %>0.19, 25-50° C., KF wt. %~0.1, 25° C. in acetone/water) | Relative stability of crystalline forms ([1]; KF wt. %≤0.1 at 35-50° C. in acetone/water) | Stability of the hydrate ([2]; 24° C.±2° C. and 50-80% relative humidity) | Changes to XRPD pattern or DSC thermogram upon heating ([2]; heating to 180° C.) | Relative stability of crystalline forms ([1]; aw≥0.93 at temperatures≤25° C.) | Changes to XRPD patterns and DSC thermograms after heating ([2]; heating to 160° C.) | Structure (SMILES) |
| --- | --- | --- | --- | --- | --- | --- |
| ≤ 1 days | more stable | stable | No changes |  |  | CNC(=O)c1ncn2cc(-c3c(F)ccc(NS(=O)(=O)c4cc(Cl)cnc4OC)c3F)ncc12 [Potassium salt Form I, 6-(3-((5-chloro-2-methoxypyridine)-3-sulfonamido)-2,6-difluorophenyl)-N-methylimidazo[1,5-a]pyrazine-1-carboxamide] |
|  |  |  |  | more stable | slight change | CNC(=O)c1ncn2cc(-c3c(F)ccc(NS(=O)(=O)c4cc(Cl)cnc4OC)c3F)ncc12 [Potassium salt Form II, 6-(3-((5-chloro-2-methoxypyridine)-3-sulfonamido)-2,6-difluorophenyl)-N-methylimidazo[1,5-a]pyrazine-1-carboxamide] |

— patent US20260224563A1, “CRYSTALLINE FORMS OF 6-(3-((5-CHLORO-2-METHOXYPYRIDINE)-3-SULFONAMIDO)-2,6-DIFLUOROPHENYL)-N-METHYLIMIDAZO[1,5-A]PYRAZINE-1-CARBOXAMIDE AND METHODS FOR USING THE SAME” (HIBERCELL, INC., priority 2023, published 2026)
